Results published in patent US10557118B2, “Compositions and methods for prevention or treatment of neoplastic disease in a mammalian subject” (The Government of the USA, as represented by the Secretary, …, priority 2006, dated 2020).

Assays:
[1] = tested on: RCC reactive SAUJ T-cell clone; assay: ELISA of IFN-gamma production by RCC reactive CTL co-cultured with peptide-pulsed COS7-A11 cells; type: cell-based, human
Protocol: COS7-A11 cells were pulsed with varying concentrations of each peptide then screened for their ability to induce IFN-gamma production by RCC reactive CTL. The 10 mer Pep-A104-K133 (ATFLGSLTWK) (SEQ ID NO: 1) induced dose dependent IFN-gamma production first evident in the 1 nM concentration range consistent with this peptide being the antigenic HLA-A11 restricted antigen recognized by the RCC reactive SAUJ T-cell clone.
Cultured T-cell lines or T cell clones were added to target cells in round-bottom 96-well plates. After 24 hours co culture at 37° C., 50 μL of supernatants was collected to measure IFN-g or GM-CSF secretion by ELISA (ENDOGEN, Woburn, Mass.) in duplicate assays. The concentration of reagents and the ELISA procedure recommended by ENDOGEN was followed without deviation. Absorbance was detected at 450 nm using an ELISA reader (VICTOR3 Multilabel counter; Perkin Elmer, Wellesley, Mass.) and data were calculated based on the standard curve generated from commercial recombinant human IFN-g or GM-CSF standards (ENDOGEN).
A total of 8 peptides (three 9-mers and five 10-mers) from the common sequence of CT-RCC 8 and CT-RCC 9 were synthesized and purchased from Genemed Synthesis, Inc. The identity and purity of each of the peptides were confirmed by mass spectrometer and high-performance liquid chromatography analysis. […]

HLA A-11 = assay: Binding of epitope to HLA A-11; parameters: species or system human; details: compared with the other epitopes

Question: “ATFLGSLTWK [Pep-A104-K133, HLA-A11-restricted 10-mer peptide from the common region of CT-RCC 8 and CT-RCC 9]” was tested. Which “concentration range at which dose dependent IFN-gamma production is first evident” value ([1]; COS7-A11 cells pulsed with varying peptide concentrations (0.1 to 10000 nM), SAUJ-CTL clone BZ-4) did it give?
Answer: Its value is roughly 1 nM.

Question: What about the “level of IFN-γ secretion by human T cells” value ([1]; compared with the other epitopes) of the same sequence?
Answer: Its value is “highest level of IFN-γ secretion”.

Question: And the “level of binding the HLA A-11” value (HLA A-11)?
Answer: Its value is “highest level of binding”.
